These results are taken from patent US4147787A, “4,5,6,7-Tetrahydro-thieno[2,3-c]-and [3,2-c]-pyridines, and therapeutic compositions containing the same” (Parcor, priority 1977, dated 1979).

The subject of one series is thrombus. The series can be described thus: Anti-thrombosis properties (metal helix in vena cava inferior, based on Friedman). The format is in vivo, female Wistar rats. Conditions: from Table IV. An excerpt:
The technique used is based on that disclosed by Friedman (Amer. J. Med. Sci., 253, 83, 1967). […] A 1.8 cm long sharp metal helix is introduced in the lumen of the vessel at the level of the renal fork and "screwed" toward the iliac veins. Five hours later, the animal is again anesthetized with ether. […] The helix, together with the thrombus it retains, is taken out after carefully opening the vena cava throughout the length involved; it is then dried by repeated dabbing with filter paper and is weighed a first time. Immediately thereafter, the helix is freed from its thrombus in a physiological saline bath, and is then again dried and weighed. The difference in weight gives the weight of the thrombus. It was found on histological examination that these were white thrombi.
Different groups of 10 rats each are treated by gastric intubation with one of the test derivatives, 48 hours, 24 hours and 2 hours prior to the implantation of the metal helix. Samples were taken five hours after said implantation.
Identical tests were carried out with dipyridamole and acetylsalicylic acid.

Series [1] concerns rat globules (red corpuscles). The series can be described thus: In vitro anti-sludge activity, preventive treatment (protamine sulfate). The format is cell-based. On the procedure: (§1) Said activity was investigated in vitro and in vivo in rats.
(§2) Thrice washed rat globules are diluted to 1/250 in physiological saline. In each of 5 tubes are placed 0.6 ml of this suspension and 0.2 ml physiological saline. To each tube is then added 0-25-50-100 and 200 μg, respectively, of the test derivative contained in 0.2 ml solution. After incubation for one hour at 37° C., 0.2 ml of a solution containing 125 μg/ml protamine sulfate are added, after which the tube is then incubated again for 0.5 hour at 37° C. The globules of each tube are then examined with a Mallases cell, and the percent free globules and the percent aggregates formed by 2, 3, 4, 5 etc.. globules is then recorded.

The subject of series [2] is rat globules (red corpuscles). The series can be described thus: In vitro anti-sludge activity, curative procedure (protamine sulfate). The class given is cell-based. Conditions: 25 μg. On the procedure: as §1, §2
The experiment was repeated according to a "curvative" procedure; the red corpuscles were first contacted with protamine sulfate and, after incubation for 0.5 hour, 0.2 ml containing 25 μg of test derivative were added thereto, which operation is followed by another incubation for one hour at 37° C. The results obtained are reported in Table III, in which the percent agglomerates as a function of size is indicated.

For series [3], the system named is Collagen-induced blood-platelet aggregation. Briefly: Collagen-induced blood-platelet aggregation. The class given is in vivo, Wistar rats. Conditions: Rattus norvegicus, po; 100 mg/kg orally, rats, 3 hours after treatment; read-out: Percent inhibition of blood-platelet aggregation, Collagen. On the procedure:
(§3) A blood sample is taken from the jugular vein of Wistar rats. From this citrated blood and after centifugation, a plasma is reconstituted which contains 600,000 ± 20,000 blood-platelets per ml, which plasma is then used in all aggregation determinations.
(§4) 0.4 ml plasma is placed in a siliconized tube provided with a magnet bar, also siliconized. The tube is introduced into an aggregometer connected to an apparatus which records optical density variations. When light transmission has attained a stable value, 0.5 ml of a solution containing 10 μM A.D.P. (adenosinediphosphate) is added to the tube.
(§5) Blood-platelet aggregation induces an increase of light transmission, followed by a decrease subsequent to the deaggregation phase.
The A.D.P. solution is substituted with a collagen (bovine tendon extract) solution.
(§6) Different groups of 20 rats each are used, each group being orally administered 100 mg/kg of a test derivative.

Series [4] can be described thus: Acute toxicity (LD50, method according to Miller and Tainter). Conditions: mouse, in vivo, mice, intravenous, read-out: LD50 /24h/kg body weight.
Series [5] deals with A.D.P. induced blood-platelet aggregation. Briefly: A.D.P. induced blood-platelet aggregation. The format is in vivo, Wistar rats. Conditions: Rattus norvegicus, po; 100 mg/kg orally, rats, 3 hours after treatment, 10 μM A.D.P. solution; read-out: Percent inhibition of blood-platelet aggregation, A.D.P. On the procedure:
as §3, §4, §5, §6

Molecules are shown by their SMILES.

For the compound `OCCN(CCO)c1nc(N2CCCCC2)c2nc(N(CCO)CCO)nc(N3CCCCC3)c2n1` [dipyridamole], the “anti-thrombosis activity (in words)” value in the series with thrombus is “no activity”.

One may read the inhibition as the relative decrease from the control value, in per cent. For `O=C(O)C1Cc2sccc2CN1Cc1ccccc1Cl` (stereo not shown) [Example 23, 5-o-Chlorobenzyl-6-carboxy-4,5,6,7-tetrahydro-thieno[3,2-c]pyridine], in series [1] (25 μg), the “percent agglomerates, size 2” value was 21%; the “percent agglomerates, size 3” value was 16%; the “percent agglomerates, size 4” value is 3%; the “percent agglomerates, size 5” value was 0%. Also, in series [1] (25 μg), the “percent agglomerates, size 6” value was determined as 0%; the “percent agglomerates, size 7” value came to 0%; the “percent agglomerates, size 8” value is recorded as 0%; the “percent agglomerates, size 9” value is 0%. Moreover, in series [1] (25 μg), the “percent agglomerates, size 10” value came out at 0%; the “percent agglomerates, size 11” value is on record as 0%; the “percent agglomerates, size 12” value is given as 0%; the “percent agglomerates, size 13” value is 0%. In series [1] (25 μg), the “percent free red corpuscles (size of agglomerates 1)” value (“percent free red corpuscles” for short) turned out to be 60%. For the same compound, in series [1] (50 μg), the “percent agglomerates, size 2” value was 25%; the “percent agglomerates, size 3” value is 6%; the “percent agglomerates, size 4” value worked out at 4%; the “percent agglomerates, size 5” value is on record as 0%. Further, in series [1] (50 μg), the “percent agglomerates, size 6” value is recorded as 0%; the “percent agglomerates, size 7” value was determined as 0%; the “percent agglomerates, size 8” value worked out at 0%; the “percent agglomerates, size 9” value turned out to be 0%. Also, in series [1] (50 μg), the “percent agglomerates, size 10” value was determined as 0%; the “percent agglomerates, size 11” value is reported as 0%; the “percent agglomerates, size 12” value was 0%; the “percent agglomerates, size 13” value is on record as 0%. Moreover, the “percent free red corpuscles” value in series [1] (50 μg) is 65%. Further, in series [1] (100 μg), the “percent agglomerates, size 2” value is reported as 14%; the “percent agglomerates, size 3” value was found to be 5%; the “percent agglomerates, size 4” value came to 1%; the “percent agglomerates, size 5” value came out at 0%. Moreover, in series [1] (100 μg), the “percent agglomerates, size 6” value amounted to 0%; the “percent agglomerates, size 7” value is given as 0%; the “percent agglomerates, size 8” value was 0%; the “percent agglomerates, size 9” value stood at 0%. In series [1] (100 μg), the “percent agglomerates, size 10” value is reported as 0%; the “percent agglomerates, size 11” value was 0%; the “percent agglomerates, size 12” value turned out to be 0%; the “percent agglomerates, size 13” value worked out at 0%. Also, the “percent free red corpuscles” value in series [1] (100 μg) is listed as 78%. Moreover, in series [1] (200 μg), the “percent agglomerates, size 2” value came to 11%; the “percent agglomerates, size 3” value is reported as 4%; the “percent agglomerates, size 4” value amounted to 2%; the “percent agglomerates, size 5” value was 0%. In series [1] (200 μg), the “percent agglomerates, size 6” value came to 0%; the “percent agglomerates, size 7” value was found to be 0%; the “percent agglomerates, size 8” value is listed as 0%; the “percent agglomerates, size 9” value is 0%. Besides, in series [1] (200 μg), the “percent agglomerates, size 10” value was 0%; the “percent agglomerates, size 11” value is recorded as 0%; the “percent agglomerates, size 12” value was 0%; the “percent agglomerates, size 13” value was 0%. Moreover, the “percent free red corpuscles” value in series [1] (200 μg) was 83%. Besides, in series [2], the “percent agglomerates, size 2” value came to 10%; the “percent agglomerates, size 3” value is given as 4%; the “percent agglomerates, size 4” value is recorded as 1%; the “percent agglomerates, size 5” value is 0%. Also, in series [2], the “percent agglomerates, size 6” value is 0%; the “percent agglomerates, size 7” value is on record as 0%; the “percent agglomerates, size 8” value amounted to 0%; the “percent agglomerates, size 9” value is given as 0%. Also, in series [2], the “percent agglomerates, size 10” value is given as 0% and the “percent free red corpuscles” value is reported as 85%. In series [3], the inhibition at 100 mg/kg amounted to 95.2%. Besides, in series [4], the LD50 at 24 h came to 180 mg/kg. Further, in series [5], the inhibition at 100 mg/kg came out at 63.9%.

Regarding `CC(=O)Oc1ccccc1C(=O)O` [acetylsalicylic acid], the “anti-thrombosis activity (in words)” value in the series on thrombus is “little activity”.
